Reference: patent publication US20250090530A1, “COMBINATIONS FOR THE TREATMENT OF CANCER” (Terns Pharmaceuticals, Inc., priority 2023, published 2025)

How the values were obtained:
Ku812 [1] = experiment: Expanded combination matrix, BLISS synergy (CellTiter-Glo viability); type: cell-based
kinase panel = experiment: In vitro kinase panel (substrate phosphorylation assays); type: biochemical; settings: at 1 μM
Ku812 [2] = experiment: Fixed molar combinations with active site TKIs, curve shift and isobologram analyses (CellTiter-Glo viability); type: cell-based
K562 [3] = experiment: Expanded combination matrix, BLISS synergy (CellTiter-Glo viability); type: cell-based
K562 [4] = experiment: Fixed molar combinations with active site TKIs, curve shift and isobologram analyses (CellTiter-Glo viability); type: cell-based
BaF3-BCR-ABL-T315I = experiment: Expanded combination matrix, excess over Bliss; type: cell-based; settings: 72 hours
BaF3BCR-ABL-T315I = experiment: Fixed molar combinations, curve shift and isobologram analyses; type: cell-based; settings: 72 hours

## C[C@H](CO)n1c(C(F)F)nc2cc(C(=O)Nc3ccc(OC(F)(F)Cl)cc3)cc(-c3cncnc3)c21 [Compound A, (R)—N-(4-(chlorodifluoromethoxy)phenyl)-2-(difluoromethyl)-1-(1-hydroxypropan-2-yl)-7-(pyrimidin-5-yl)-1H-benzo[d]imidazole-5-carboxamide]
Ku812 [1]; combination partner Dasatinib
  Strongest BLISS score: 0.08
  Summary of Observations (BLISS synergy): Weak synergy observed
Ku812 [1]; combination partner Imatinib
  Strongest BLISS score: 0.05
  Summary of Observations (BLISS synergy): Weak synergy observed
Ku812 [1]; combination partner Ponatinib
  Strongest BLISS score: 0.07
  Summary of Observations (BLISS synergy): Weak synergy observed
Kinase panel
  Inhibition of any kinase in in vitro kinase panel: ≤ 50%
Ku812 [2]; with multiple TKIs
  Interaction in in vitro combination studies: at least additively
K562 [3]; combination partner Dasatinib
  Strongest BLISS score: 0.16
  Summary of Observations (BLISS synergy): BLISS synergy
K562 [3]; combination partner Imatinib
  Strongest BLISS score: 0.12
  Summary of Observations (BLISS synergy): BLISS synergy
K562 [3]; combination partner Ponatinib
  Strongest BLISS score: 0.17
  Summary of Observations (BLISS synergy): BLISS synergy
K562 [4]; with multiple TKIs
  Interaction in in vitro combination studies: works synergistically

## O=C(Nc1ccc(OC(F)(F)Cl)cc1)c1cnc(N2CC[C@@H](O)C2)c(-c2cc[nH]n2)c1 [Asciminib, asciminib]
BaF3-BCR-ABL-T315I; Compound 2 dasatinib
  Excess over Bliss score sum: 3.19
  Highest excess over Bliss score: 0.27
BaF3-BCR-ABL-T315I; Compound 2 flumatinib
  Excess over Bliss score sum: 0.81
  Highest excess over Bliss score: 0.15
BaF3-BCR-ABL-T315I; Compound 2 imatinib
  Excess over Bliss score sum: 1.29
  Highest excess over Bliss score: 0.15
BaF3-BCR-ABL-T315I; Compound 2 nilotinib
  Excess over Bliss score sum: 0.36
  Highest excess over Bliss score: 0.05
BaF3-BCR-ABL-T315I; Compound 2 ponatinib
  Excess over Bliss score sum: 0.83
  Highest excess over Bliss score: 0.14
BaF3BCR-ABL-T315I; Reference dasatinib
  Conclusion (synergy by curve shift and isobologram analyses): synergy
BaF3BCR-ABL-T315I; Reference flumatinib
  Conclusion (synergy by curve shift and isobologram analyses): no synergy
BaF3BCR-ABL-T315I; Reference nilotinib
  Conclusion (synergy by curve shift and isobologram analyses): no synergy
Ku812 [2]; combination partner Dasatinib
  Summary of Observations (synergy by curve shift and isobologram analyses): Additivity
Ku812 [2]; combination partner Imatinib
  Summary of Observations (synergy by curve shift and isobologram analyses): Additivity
Ku812 [2]; combination partner Ponatinib
  Summary of Observations (synergy by curve shift and isobologram analyses): Additivity
K562 [4]; combination partner Dasatinib
  Summary of Observations (synergy by curve shift and isobologram analyses): Synergy at IC90
K562 [4]; combination partner Imatinib
  Summary of Observations (synergy by curve shift and isobologram analyses): Synergy at IC75 and IC90
K562 [4]; combination partner Ponatinib
  Summary of Observations (synergy by curve shift and isobologram analyses): Synergy at IC75 and IC90
